3 compounds from patent US20260139328A1, “NOVEL MICROBIAL GENOTOXINS” (Yale University, priority 2022, published 2026) can be followed below.

The structures appear in SMILES notation.

The test system of data set [1] is HeLa cells.
For data set [2], the system named is HeLa cells. The experiment in a line: alkaline comet unwinding assay in HeLa cells. The format is cell-based, human. Particulars: 100 μg/ml synthetic compounds, 5-6 h. How it is done:
To assess DNA damage using chemical extracts of bacterial metabolites, HeLa, MC38 or HCT116 cells were treated with 5 mg/ml ethyl-acetate extracts diluted in culture medium supplemented with 10 mM HEPES for 4-6 h.
To assess DNA damage using pure compounds, HeLa cells were treated with 100 µg/ml cisplatin, 100 μg/ml, 25 μg/ml, or 10 μg/ml indolimine-214 (1), compound 2, indolimine-200 (3), indolimine-248 (4) or 0.1% DMSO diluted in culture medium supplemented with 10 mM HEPES for 4-6 h.
After treatment with ethyl-acetate extracts or pure synthetic compounds, HeLa cells were washed with PBS and collected via trypsinization. DNA damage was assessed via alkaline single cell gel electrophoresis using the Trevigen Comet Assay kit (Trevigen, Inc.) according to the manufacturer's instructions. Briefly, cells were embedded in Comet LMAgarose and loaded onto CometSlide™. Slides were placed flat at 4° C. in the dark for 10 min and then immersed overnight in Lysis Solution at 4° C. […] Comet images were acquired using a Leica DMRB fluorescence microscope. Tail DNA % (Tail DNA content as a percentage of Comet DNA content) and Tail moment (Tail length multiplied by Tail DNA %) were analyzed with OpenComet v1.3.1., and 20-50 comets were recorded for each sample.

Data set [3] in a line: NMR analysis of synthetic indolimine-214 after preparative HPLC purification. Conditions: upon preparative HPLC purification; reversible reaction in water.
Data set [4] has as its system circular pUC19 plasmid DNA.

Consider `CC(C)C/N=C/c1c[nH]c2ccccc12` [indolimine-200 (3)], for which the “γ-H2AX in HeLa cells” value with HeLa cells [1] is given as “triggered increased 7-H2AX in HeLa cells in a dose-dependent manner”.

For `CC(C)CCN=Cc1c[nH]c2ccccc12` [indolimine-214 (1)], in the data set with HeLa cells [2], the “tailing in alkaline comet unwinding assay” value is “induced tailing”. The “degradation into the two starting materials” value in data set [3] is on record as not below 20%. For the same compound, in the data set on HeLa cells [1], the “genotoxicity (γ-H2AX, HeLa) in relation to purity” value was “correlated directly with its purity” and the “γ-H2AX in HeLa cells” value is reported as “triggered increased γ-H2AX in a dose-dependent manner”. Moreover, the “DNA damage of circular pUC19 plasmid” value in data set [4] is listed as “neither synthetic indolimine-214 (1) nor compound 2 alone (up to 1 mg/ml) induced DNA damage”.

As to `C(=N\CCc1ccccc1)/c1c[nH]c2ccccc12` [indolimine-248 (4)], the “γ-H2AX in HeLa cells” value in the data set with HeLa cells [1] is recorded as “triggered increased 7-H2AX in HeLa cells in a dose-dependent manner”.
